We go through 4 molecules from publication PMC3251870 (British Journal of Cancer, 2011).

Assay [1] relates to OMM2.3 uveal melanoma cells. Put plainly: MTS cell viability, OMM2.3. It counts as cell-based, human. To be noted: Homo sapiens, 96 h, 4 days. The protocol: (§1) All human cancer cell lines were maintained in RPMI media supplemented with 5% (lung and breast cancer cells) or 10% (melanoma cells) fetal bovine serum. […] Human mammary epithelial cells immortalised with telomerase were maintained in complete MEGM media from Cambrex (East Rutherford, NJ, USA).
(§2) Absorbance at 490 and 650 nm (reference wavelength) was measured by a Spectra Max (Molecular Devices, Sunnyvale, CA, USA) or a FlouroStar Omega (BMG Biosciences, Ortenberg, Germany) plate reader. Data were normalised to the untreated controls (100% viability). Each cell line was tested in 1–5 independent assays, each containing 4–8 replicates. IC50 values were calculated using DIVISA, a high-throughput software, developed in-house (manuscript in preparation), for storing and analysing drug sensitivity assays. Dose–response curves were plotted using a non-linear regression model and IC50s were determined from the fitted curves.

The test system of assay [2] is HCC4017 lung cancer cells. The assay is described as follows: MTS cell viability, HCC4017. The class given is cell-based, human. The following applies: Homo sapiens, 96 h; HCC4017, MTS, 4 days. The protocol: as §1, §2
The subject of assay [3] is HCC4018 lung cancer cells. Put plainly: MTS cell viability, HCC4018. The class given is cell-based, human. To be noted: Homo sapiens, 96 h; HCC4018, MTS, 4 days. The protocol:
as §1, §2

Assay [4] relates to HBEC30KT human bronchial epithelial cells. The assay is described as follows: MTS cell viability, HBEC30KT. It counts as cell-based. The following applies: Homo sapiens, Epithelial cell, 96 h, HBEC30KT, 4 days. The protocol: as §1, §2
The test system of assay [5] is patient-matched human bronchial epithelial cells/human non-small lung cancer cells (HBEC30KT/HCC4017, HBEC34KT/HCC4018). Put plainly: Cancer vs normal selectivity in patient-matched pairs (MTS viability). The class given is cell-based. The protocol: as §1, §2
Another assay relates to SKMEL2 melanoma cells. The assay is described as follows: MTS cell viability, SKMEL2. It counts as cell-based, human. The following applies: SK-MEL2, MTS, 4 days. The protocol:
as §1, §2

For assay [6], the system named is HBEC34KT human bronchial epithelial cells. The assay is described as follows: MTS cell viability, HBEC34KT. The class given is cell-based. The following applies: Homo sapiens, Epithelial cell, 96 h, HBEC34KT, 4 days. The protocol: as §1, §2
The next assay concerns LOXIMVI melanoma cells. Put plainly: MTS cell viability, LOXIMVI. To be noted: LOXIMVI, 4 days. It counts as cell-based, human. The protocol: as §1, §2
The test system of assay [7] is OCM1 uveal melanoma cells. The assay is described as follows: MTS cell viability, OCM1. It counts as cell-based, human. The following applies: Homo sapiens, 96 h, 4 days. The protocol:
as §1, §2

The subject of the next assay is Melanocytes. The assay is described as follows: MTS cell viability, primary melanocytes. It counts as cell-based, human. The following applies: Homo sapiens, Melanocyte, 96 h, 4 days. The protocol: as §1, §2
The test system of assay [8] is OCM3 uveal melanoma cells. Put plainly: MTS cell viability, OCM3. It counts as cell-based, human. The following applies: Homo sapiens, 96 h, 4 days. The protocol: as §1, §2
The subject of assay [9] is MEL270 uveal melanoma cells. The assay is described as follows: MTS cell viability, MEL270. It counts as cell-based, human. The following applies: Homo sapiens, 96 h, 4 days. The protocol:
as §1, §2

The subject of a further assay is H1437 cells. The assay is described as follows: MTS cell viability, H1437. It counts as cell-based, human. To be noted: cell viability, Supplementary Figure 2D. The protocol: as §1, §2
The test system of the next assay is HCC15 cells. Put plainly: MTS cell viability, HCC15. The class given is cell-based, human. To be noted: cell viability, Supplementary Figure 2C. The protocol:
as §1, §2

Another assay has as its system H1993 cells. Put plainly: MTS cell viability, H1993. It counts as cell-based, human. The following applies: H1993 cells, verapamil plus depsipeptide. The protocol:
as §1, §2

The next assay relates to H2073 cells. The assay is described as follows: MTS cell viability, H2073. It counts as cell-based, human. The following applies: H2073 cells, verapamil plus depsipeptide. The protocol:
as §1, §2

What is called IC50 is the concentration needed to halve the response being measured. In the case of `CCC(=O)CCCCC[C@@H]1NC(=O)[C@H]2CCCCN2C(=O)[C@H]([C@@H](C)CC)NC(=O)[C@H](Cc2cn(OC)c3ccccc23)NC1=O` [Apicidin, apicidin], the IC50 in assay [1] came to 400 nM; in assay [2], 120 nM; in [3], 30 nM; in [4] it was 90 nM; in [6] it was 790 nM; in [7], 700 nM. Besides, the IC50 worked out at 200 nM in the assay with Melanocytes, 4000 nM in [8] and 650 nM in [9]. The figures for the “selectivity for cancer vs normal within a matched pair” value in assay [5] (one matched lung cancer/HBEC pair) and in assay [5] (second pair of lines) were “no selectivity” and roughly 25 fold, respectively. For the same molecule, the “sensitivity (position in drug sensitivity profile of melanoma panel)” value is given as “on the sensitive side” in the assay with SKMEL2 melanoma cells and “sensitive” in the assay with LOXIMVI melanoma cells.

For the molecule `Nc1ccccc1NC(=O)c1ccc(CNC(=O)OCc2cccnc2)cc1` [MS-275], the “relative potency against H1437 vs HCC15 cells” value in the assay on H1437 cells is reported as “more potent against H1437 cells than HCC15 cells”.

`O=C(CCCCCN1C(=O)c2cccc3cccc(c23)C1=O)NO` [Scriptaid]: the “relative sensitivity of HCC15 compared with H1437 cells” value in the assay on HCC15 cells is on record as “more sensitive”.

In the case of `COc1ccc(CCN(C)CCCC(C#N)(c2ccc(OC)c(OC)c2)C(C)C)cc1OC` (centres unmarked) [verapamil], the “restoration of sensitivity to depsipeptide by MDR1 inhibition” value in the assay with H1993 cells is “not affecting”; in the assay with H2073 cells it was “partly re-sensitised”.
